Assay results reported in the supplement of paper PMC10307832.

Key:
Test in all cases: relative viability (nuclei count vs DMSO), 5 days (fraction); higher = more cells survive
OSI-027 + Olaparib = compound: COc1cccc2cc(-c3nc([C@H]4CC[C@H](C(=O)O)CC4)n4ncnc(N)c34)[nH]c12 [OSI-027] + O=C(c1cc(Cc2n[nH]c(=O)c3ccccc23)ccc1F)N1CCN(C(=O)C2CC2)CC1 [Olaparib] (partner 8 µM)
How it was run: (§1)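 One day after seeding in 1536-well plates, lung cancer cell lines were dosed by pin tool. Dosing was either single-drug or a fixed anchor-drug dose plus five library-drug doses (not always all listed) in √10 steps. After 5 days, nuclei were stained in one fix-and-stain step and counted on 4× images, and relative viability is the nuclei count of treated wells over that of vehicle wells, given as the median of duplicate plates.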

Alpelisib + Foretinib = compound: Cc1nc(NC(=O)N2CCC[C@H]2C(N)=O)sc1-c1ccnc(C(C)(C)C(F)(F)F)c1 [Alpelisib] + COc1cc2c(Oc3ccc(NC(=O)C4(C(=O)Nc5ccc(F)cc5)CC4)cc3F)ccnc2cc1OCCCN1CCOCC1 [Foretinib] (partner 0.25 µM)
How it was run: as §1

Alpelisib + Linsitinib = compound: Cc1nc(NC(=O)N2CCC[C@H]2C(N)=O)sc1-c1ccnc(C(C)(C)C(F)(F)F)c1 [Alpelisib] + C[C@]1(O)C[C@@H](c2nc(-c3ccc4ccc(-c5ccccc5)nc4c3)c3c(N)nccn32)C1 [Linsitinib] (partner 1 µM)
How it was run: as §1

Alpelisib + AZD7762 = compound: Cc1nc(NC(=O)N2CCC[C@H]2C(N)=O)sc1-c1ccnc(C(C)(C)C(F)(F)F)c1 [Alpelisib] + NC(=O)Nc1cc(-c2cccc(F)c2)sc1C(=O)N[C@H]1CCCNC1 [AZD7762] (partner 0.2 µM)
How it was run: as §1

Cell Line	relative viability (OSI-027 + Olaparib; first compound 0.01 µM)	relative viability (OSI-027 + Olaparib; first compound 0.03162 µM)	relative viability (OSI-027 + Olaparib; first compound 0.1 µM)	relative viability (OSI-027 + Olaparib; first compound 0.3162 µM)	relative viability (OSI-027 + Olaparib; first compound 1 µM)	relative viability (Alpelisib + Foretinib; first compound 0.04 µM)	relative viability (Alpelisib + Foretinib; first compound 0.1265 µM)	relative viability (Alpelisib + Foretinib; first compound 0.4 µM)	relative viability (Alpelisib + Foretinib; first compound 1.265 µM)	relative viability (Alpelisib + Foretinib; first compound 4 µM)	relative viability (Alpelisib + Linsitinib; first compound 0.04 µM)	relative viability (Alpelisib + Linsitinib; first compound 0.1265 µM)	relative viability (Alpelisib + Linsitinib; first compound 0.4 µM)	relative viability (Alpelisib + Linsitinib; first compound 1.265 µM)	relative viability (Alpelisib + Linsitinib; first compound 4 µM)	relative viability (Alpelisib + AZD7762; first compound 0.04 µM)	relative viability (Alpelisib + AZD7762; first compound 0.1265 µM)	relative viability (Alpelisib + AZD7762; first compound 0.4 µM)	relative viability (Alpelisib + AZD7762; first compound 1.265 µM)	relative viability (Alpelisib + AZD7762; first compound 4 µM)
NCI-H1793	0.866	0.791	0.729	0.363	0.233	0.733	0.666	0.77	0.402	0.42	0.596	1.19	0.997	0.692	0.525	0.473	0.332	0.383	0.374	0.23
NCI-H1915	0.284	0.274	0.259	0.298	0.237	1.12	1.1	1.15	1.03	1.09	1.11	1.1	1.17	1.02	1.08	0.688	0.713	0.69	0.676	0.611
NCI-H1944	0.371	0.373	0.422	0.355	0.265	0.786	0.96	0.881	0.581	0.43	0.985	1.2	1.17	0.858	0.543	0.452	0.6	0.605	0.3	0.344
NCI-H1975	0.803	0.609	0.755	0.76	0.478	0.915	0.872	0.883	0.691	0.57	0.96	0.915	0.91	0.67	0.548	0.731	0.621	0.731	0.463	0.374
NCI-H1993	1.03	0.894	0.902	0.653	0.522	0.737	0.697	0.771	0.544	0.55	0.732	0.737	0.762	0.702	0.749	0.722	0.656	0.695	0.539	0.472
NCI-H2085	0.751	0.771	0.726	0.763	0.633	0.93	0.845	1.05	1.07	0.833	0.874	0.905	0.852	0.731	0.853	0.946	0.781	1.09	0.944	0.865
NCI-H2087	0.757	0.675	0.586	0.542	0.259	0.903	1.07	1.31	0.814	0.614	0.853	0.979	1.05	0.803	1.07	1.39	1.3	1.59	1.22	1.36
